Reference: the NIST ThermoML archive (doi:10.1021/je500381c)

Test: xn = mol fraction of the nth substance listed
Conditions: for mass density / viscosity: 100 kPa, Liquid; for mass density: Vibrating tube method; for surface tension liquid-gas: Drop volume

CCC12CC3CC(CC(C3)C1)C2 [1-ethyladamantane] + OCC1CCCCC1
Conditions | mass density [kg/m3] | surface tension liquid-gas [mN/m] | viscosity [mPa·s]
293.15 K, x2 = 0 | 937.11 | – | 6.371
293.15 K, x2 = 0.1 | 936.13 | – | 6.695
293.15 K, x2 = 0.2002 | 935.23 | – | 7.433
293.15 K, x2 = 0.2997 | 934.37 | – | 8.368
293.15 K, x2 = 0.3999 | 933.76 | – | 9.674
293.15 K, x2 = 0.4998 | 933.1 | – | 11.54
293.15 K, x2 = 0.5989 | 932.54 | – | 14.09
293.15 K, x2 = 0.7001 | 931.93 | – | 17.67
293.15 K, x2 = 0.8023 | 931.24 | – | 23.66
293.15 K, x2 = 0.8996 | 930.57 | – | 29.61
298.15 K, x2 = 0 | 933.58 | 29.87 | 5.565
298.15 K, x2 = 0.1 | 932.5 | 30.21 | 5.776
298.15 K, x2 = 0.2002 | 931.58 | 30.84 | 6.348
298.15 K, x2 = 0.2997 | 930.72 | 30.99 | 7.083
298.15 K, x2 = 0.3999 | 930.09 | 31.23 | 8.081
298.15 K, x2 = 0.4998 | 929.43 | 31.51 | 9.483
298.15 K, x2 = 0.5989 | 928.87 | 31.86 | 11.38
298.15 K, x2 = 0.7001 | 928.31 | 31.98 | 14.04
298.15 K, x2 = 0.8023 | 927.68 | 32.1 | 18.53
298.15 K, x2 = 0.8996 | 927 | 32.21 | 22.86
303.15 K, x2 = 0 | 929.99 | – | 4.903
303.15 K, x2 = 0.1 | 928.84 | – | 5.033
303.15 K, x2 = 0.2002 | 927.89 | – | 5.484
303.15 K, x2 = 0.2997 | 927.06 | – | 6.058
303.15 K, x2 = 0.3999 | 926.4 | – | 6.832
303.15 K, x2 = 0.4998 | 925.74 | – | 7.675
303.15 K, x2 = 0.5989 | 925.17 | – | 9.337
303.15 K, x2 = 0.7001 | 924.63 | – | 11.31
303.15 K, x2 = 0.8023 | 924.04 | – | 14.75
303.15 K, x2 = 0.8996 | 923.4 | – | 18.07
308.15 K, x2 = 0 | 926.4 | – | 4.348
308.15 K, x2 = 0.1 | 925.16 | – | 4.417
308.15 K, x2 = 0.2002 | 924.2 | – | 4.772
308.15 K, x2 = 0.2997 | 923.39 | – | 5.224
308.15 K, x2 = 0.3999 | 922.68 | – | 5.833
308.15 K, x2 = 0.4998 | 922.03 | – | 6.657
308.15 K, x2 = 0.5989 | 921.45 | – | 7.748
308.15 K, x2 = 0.7001 | 920.92 | – | 9.236
308.15 K, x2 = 0.8023 | 920.38 | – | 11.88
308.15 K, x2 = 0.8996 | 919.77 | – | 14.39
313.15 K, x2 = 0 | 922.81 | – | 3.878
313.15 K, x2 = 0.1 | 921.48 | – | 3.897
313.15 K, x2 = 0.2002 | 920.49 | – | 4.182
313.15 K, x2 = 0.2997 | 919.69 | – | 4.542
313.15 K, x2 = 0.3999 | 918.95 | – | 5.016
313.15 K, x2 = 0.4998 | 918.29 | – | 5.663
313.15 K, x2 = 0.5989 | 917.71 | – | 6.499
313.15 K, x2 = 0.7001 | 917.19 | – | 7.629
313.15 K, x2 = 0.8023 | 916.67 | – | 9.75
313.15 K, x2 = 0.8996 | 916.12 | – | 11.66
318.15 K, x2 = 0 | 919.21 | – | 3.478
318.15 K, x2 = 0.1 | 917.79 | – | 3.463
318.15 K, x2 = 0.2002 | 916.77 | – | 3.688
318.15 K, x2 = 0.2997 | 915.95 | – | 3.973
318.15 K, x2 = 0.3999 | 915.2 | – | 4.35
318.15 K, x2 = 0.4998 | 914.53 | – | 4.857
318.15 K, x2 = 0.5989 | 913.94 | – | 5.504
318.15 K, x2 = 0.7001 | 913.43 | – | 6.374
318.15 K, x2 = 0.8023 | 912.93 | – | 8.051
318.15 K, x2 = 0.8996 | 912.44 | – | 9.556
323.15 K, x2 = 0 | 915.62 | – | 3.134
323.15 K, x2 = 0.1 | 914.09 | – | 3.094
323.15 K, x2 = 0.2002 | 913.03 | – | 3.27
323.15 K, x2 = 0.2997 | 912.19 | – | 3.497
323.15 K, x2 = 0.3999 | 911.42 | – | 3.798
323.15 K, x2 = 0.4998 | 910.75 | – | 4.199
323.15 K, x2 = 0.5989 | 910.15 | – | 4.707
323.15 K, x2 = 0.7001 | 909.63 | – | 5.378
323.15 K, x2 = 0.8023 | 909.16 | – | 6.705
323.15 K, x2 = 0.8996 | 908.7 | – | 7.906
328.15 K, x2 = 0 | 912.01 | – | 2.838
328.15 K, x2 = 0.1 | 910.38 | – | 2.777
328.15 K, x2 = 0.2002 | 909.27 | – | 2.915
328.15 K, x2 = 0.2997 | 908.41 | – | 3.096
328.15 K, x2 = 0.3999 | 907.62 | – | 3.338
328.15 K, x2 = 0.4998 | 906.94 | – | 3.657
328.15 K, x2 = 0.5989 | 906.33 | – | 4.059
328.15 K, x2 = 0.7001 | 905.81 | – | 4.581
328.15 K, x2 = 0.8023 | 905.35 | – | 5.629
328.15 K, x2 = 0.8996 | 904.92 | – | 6.508
333.15 K, x2 = 0 | 908.41 | – | 2.581
333.15 K, x2 = 0.1 | 906.65 | – | 2.507
333.15 K, x2 = 0.2002 | 905.5 | – | 2.613
333.15 K, x2 = 0.2997 | 904.61 | – | 2.756
333.15 K, x2 = 0.3999 | 903.81 | – | 2.952
333.15 K, x2 = 0.4998 | 903.1 | – | 3.208
333.15 K, x2 = 0.5989 | 902.49 | – | 3.525
333.15 K, x2 = 0.7001 | 901.96 | – | 3.935
333.15 K, x2 = 0.8023 | 901.5 | – | 4.674
333.15 K, x2 = 0.8996 | 901.1 | – | 5.472
